Assay results taken from PMC9591056, “Inhibitors of ApiAP2 protein DNA binding exhibit multistage activity against Plasmodium parasites” (PLOS Pathogens, 2022).

Assays:
AP2-I D3 = target: T1, AP2-I D3 (Plasmodium falciparum, UniProt Q8IJW6); experiment: competitive EMSA, inhibition of DNA binding; details: 300 uM compound; cognate biotinylated dsDNA probe; 10 mM Tris pH 7.5, 50 mM KCl, 6 mM MgCl2
T1 construct: gene PF3D7_1007700

PfSIP2 D1 = target: T2, PfSIP2 D1 (Plasmodium falciparum, UniProt C6KSN9); experiment: competitive EMSA, inhibition of DNA binding; details: 300 uM compound; cognate biotinylated dsDNA probe; 10 mM Tris pH 7.5, 50 mM KCl, 6 mM MgCl2
T2 construct: gene PF3D7_0604100
T2 sequence (C6KSN9 1729-1788 limits assumed): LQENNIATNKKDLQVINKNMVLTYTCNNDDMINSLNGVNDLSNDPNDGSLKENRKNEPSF

AP2-HS D1 = target: T3, AP2-HS D1 (Plasmodium falciparum, UniProt C0H5G5); experiment: competitive EMSA, inhibition of DNA binding; details: 300 uM compound; cognate biotinylated dsDNA probe; 10 mM Tris pH 7.5, 50 mM KCl, 6 mM MgCl2
T3 construct: gene PF3D7_1342900
T3 sequence (C0H5G5 2363-2413 limits assumed): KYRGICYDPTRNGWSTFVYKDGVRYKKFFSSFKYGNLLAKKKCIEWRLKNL

PbAP2-Sp = target: T4, PbAP2-Sp (Plasmodium berghei, UniProt A0A509ASL1); experiment: competitive EMSA, inhibition of DNA binding; details: 300 uM compound; cognate biotinylated dsDNA probe; 10 mM Tris pH 7.5, 50 mM KCl, 6 mM MgCl2
T4 construct: gene PBANKA_1329800
T4 sequence (A0A509ASL1 175-230 limits assumed): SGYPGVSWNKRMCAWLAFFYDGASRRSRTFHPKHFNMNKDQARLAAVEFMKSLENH

AP2-EXP AP2 domain [1] = target: T5, AP2-EXP AP2 domain (Plasmodium falciparum, UniProt Q8IKH2); experiment: competitive EMSA, inhibition of DNA binding; details: 300 uM compound, biotinylated cognate dsDNA probe, 10 mM Tris pH 7.5, 50 mM KCl, 6 mM MgCl2
T5 construct: gene PF3D7_1466400
T5 sequence (Q8IKH2 63-123): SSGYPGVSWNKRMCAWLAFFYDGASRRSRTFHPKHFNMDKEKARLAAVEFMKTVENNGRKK

AtERF1 AP2/ERF domain = AtERF1 AP2/ERF domain (Arabidopsis thaliana, UniProt O80337 147-205); experiment: EMSA; 300 uM Compound A; EMSA: 10 mM Tris pH 7.5, 50 mM KCl, 1 mM DTT, 6 mM MgCl2, 60 ng/uL poly dIdC, 65 ng BSA; 125 ng AP2-EXP or PbAP2-Sp, 40-150 fmol probe; 15 min protein + compound, then 5 min with DNA; temperature not stated; details: protein: recombinant; (pGex4t-1); label: 5' biotin on forward strand; blunt
Sequence of AtERF1 AP2/ERF domain (O80337 147-205): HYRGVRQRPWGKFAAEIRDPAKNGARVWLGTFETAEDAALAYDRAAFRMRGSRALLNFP

AP2-EXP AP2 domain [2] = target: AP2-EXP AP2 domain (Plasmodium falciparum, UniProt Q8IKH2 64-118); experiment: EMSA; 300 uM Compound D; EMSA: 10 mM Tris pH 7.5, 50 mM KCl, 1 mM DTT, 6 mM MgCl2, 60 ng/uL poly dIdC, 65 ng BSA; 125 ng AP2-EXP or PbAP2-Sp, 40-150 fmol probe; 15 min protein + compound, then 5 min with DNA; temperature not stated; details: protein: recombinant; (expressed as in cited work); label: 5' biotin on forward strand; blunt

T1 sequence (Q8IJW6 entry or part of it): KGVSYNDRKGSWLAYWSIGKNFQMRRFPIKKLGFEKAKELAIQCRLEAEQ

In the case of `CCc1ccc(-c2nc3cc(NC(=O)c4ccc([N+](=O)[O-])o4)ccc3o2)cc1` [B, Compound B], the “competitive EMSA, inhibition of DNA binding” value (“competitive EMSA, inhibition” below) (AP2-I D3) is reported as “Compounds A, B, C, and I can prevent DNA binding by AP2-I D3”, the “competitive EMSA, inhibition” value (PfSIP2 D1) is reported as “Compounds B, C and I prevent DNA binding by PfSIP2 D1 (S5C Fig)” and the “competitive EMSA, inhibition” value (AP2-HS D1) is reported as “Compounds B and I prevent DNA binding by AP2-HS D1 (S5B Fig)”. For the same molecule, the “competitive EMSA, inhibition” value (PbAP2-Sp) was “Compounds B and C block PbAP2-Sp DNA binding in vitro”.

With `Cc1ccc(-c2nc3cc(NC(=O)c4ccc([N+](=O)[O-])o4)ccc3o2)cc1Cl` [B-1, Compound B-1] the “competitive EMSA, inhibition” value (AP2-EXP AP2 domain [1]) was “Compounds B-1 and B-4 prevent DNA binding by AP2-EXP (Fig 2A)” and the “competitive EMSA, inhibition” value (AP2-I D3) was “prevent DNA binding by AP2-EXP (Fig 2A) and AP2-I D3 (S7A Fig)”.

`Cc1cccc(-c2nc3cc(NC(=O)c4ccc([N+](=O)[O-])o4)ccc3o2)c1` [B-4, Compound B-4] was tested, and the “competitive EMSA, inhibition” value (AP2-EXP AP2 domain [1]; also titrated at 25, 50 and 150 uM) was “Compounds B-1 and B-4 prevent DNA binding by AP2-EXP (Fig 2A)” and the “competitive EMSA, inhibition” value (AP2-I D3) was “prevent DNA binding by AP2-EXP (Fig 2A) and AP2-I D3 (S7A Fig)”.

B1: AtERF1 gel shift probe (dsDNA)
DNA 1: TTTAACTTTAATTATGAATATGAGGCGGCGGGTTCGTGATCAAC
DNA 2: GTTGATCACGAACCCGCCGCCTCATATTCATAATTAAAGTTAAA
B1: binds (AtERF1 AP2/ERF domain).

B2: AP2-EXP gel shift probe (dsDNA)
DNA 1: ACTACACACCTAACTATGCATGCATCAATATAGTGGATTA
DNA 2: TAATCCACTATATTGATGCATGCATAGTTAGGTGTGTAGT
B2: binds (AP2-EXP AP2 domain [2]).
